In patent US12297194B2, “N2-phenylpyrimidine-2,4-diamine compounds, and preparation methods and methods of use thereof” (BRIDGE BIOTHERAPEUTICS, INC., priority 2021, dated 2025) one finds GI50 data, which are given here for seven compounds.

Type in all cases: cell-based, murine
One test concerns the target Ba/F3 EGFR Wild-type (Homo sapiens, UniProt P00533). The experiment in a line: CellTiter-Glo cell viability, Ba/F3 EGFR wild-type cells. The settings on record: 72 hours, read-out: Ba/F3 EGFR mutant cell (IC50, nM) WT. Here is the method: (§1) In order to evaluate an inhibitory ability on wild-type Ba/F3 EGFR and Ba/F3 EGFR mutations in Ba/F3 cell lines by the compounds of Formula 1, the experiment was carried out as described below.
(§2) The measurement of activities on Ba/F3 cells harboring wild-type EGFR and EGFR mutants by the compounds of the present invention were determined utilizing the CELLTITER-GLO™ system from Promega, as follows. The CELLTITER-GLO™ assay is a method for measuring the ATP present in cells to determine the cell viability. Ba/F3 EGFR wild-type and Ba/F3 EGFR L858R/C797S (L/C), Ba/F3 EGFR L858R/T790M/C797S (L/T/C), Ba/F3 EGFR Del19/T790M (D/T), Ba/F3 EGFR Del19/C797S (D/C), Ba/F3 EGFR Del19/T790M/C797S (D/T/C) mutant cell lines were maintained in RPMI1640, containing […], 1% penicillin-streptomycin, […] puromycin. Cells were grown in a humidified incubator at 37° C. with […].
(§3) The analysis of an EGFR inhibitory activity by the compounds was carried out in accordance with the analysis reaction recipe below.
(§4) 2500 cells/90 μL were seeded in 96 well cell culture plate, and after 24 hours, treated with the compounds represented by Formula 1 in concentrations of 0, 0.3, 0.9, 2.7, 8.2, 24.7, 74.1, 222.2, 666.7, 2000 (nM). After the reaction of 72 hours, the plate was incubated for 30 minutes at ambient temperature, and then, was further treated with 100 μL of the CELLTITER-GLO™ reagent and was shaken for 10 minutes at ambient temperature. Finally, measurement of the luminescence values were obtained using the SPECTRAMAX™ iD3 (Molecular Devices), and the IC50 values of the compound were analyzed using the GraphPad Prism program (version 9.0.2, GraphPad Software, Inc.).
(Cellular ATP, detected with luciferase, serves as a proxy for viable cell number.)

In test [1] the target is Ba/F3 EGFR L858R/C797S mutants (Homo sapiens, UniProt P00533, C797S/L858R, cells depend on it). Briefly: CellTiter-Glo cell viability, Ba/F3 EGFR L858R/C797S cells. The conditions noted are these: 72 hours, read-out: Ba/F3 EGFR mutant cell (IC50, nM) L/C. The protocol:
as §1, §2, §3, §4

In test [2] the target is Ba/F3 EGFR L858R/T790M/C797S mutants (Homo sapiens, UniProt P00533, T790M/C797S/L858R, cells depend on it). Briefly: CellTiter-Glo cell viability, Ba/F3 EGFR L858R/T790M/C797S cells. The settings on record: 72 hours, read-out: Ba/F3 EGFR mutant cell (IC50, nM) L/T/C. The protocol: as §1, §2, §3, §4
Test [3] deals with Ba/F3 EGFR Del19/T790M mutants (Homo sapiens, UniProt P00533, T790M, cells depend on it, form not given). The experiment in a line: CellTiter-Glo cell viability, Ba/F3 EGFR Del19/T790M cells. The settings on record: 72 hours, read-out: Ba/F3 EGFR mutant cell (IC50, nM) D/T. Here is the method: as §1, §2, §3, §4
For test [4], the target named is Ba/F3 EGFR Del19/C797S mutants (Homo sapiens, UniProt P00533, C797S, cells depend on it, form not given). Briefly: CellTiter-Glo cell viability, Ba/F3 EGFR Del19/C797S cells. The settings on record: 72 hours, read-out: Ba/F3 EGFR mutant cell (IC50, nM) D/C. The protocol: as §1, §2, §3, §4
The target of test [5] is Ba/F3 EGFR Del19/T790M/C797S mutants (Homo sapiens, UniProt P00533, T790M/C797S, cells depend on it, form not given). Briefly: CellTiter-Glo cell viability, Ba/F3 EGFR Del19/T790M/C797S cells. The settings on record: 72 hours, read-out: Ba/F3 EGFR mutant cell (IC50, nM) D/T/C. Here is the method:
as §1, §2, §3, §4

Ba/F3 EGFR Del19/T790M/C797S mutants, sequence (P00533 with tags, fused parts or gaps DEL746-750/T790M/C797S, form open): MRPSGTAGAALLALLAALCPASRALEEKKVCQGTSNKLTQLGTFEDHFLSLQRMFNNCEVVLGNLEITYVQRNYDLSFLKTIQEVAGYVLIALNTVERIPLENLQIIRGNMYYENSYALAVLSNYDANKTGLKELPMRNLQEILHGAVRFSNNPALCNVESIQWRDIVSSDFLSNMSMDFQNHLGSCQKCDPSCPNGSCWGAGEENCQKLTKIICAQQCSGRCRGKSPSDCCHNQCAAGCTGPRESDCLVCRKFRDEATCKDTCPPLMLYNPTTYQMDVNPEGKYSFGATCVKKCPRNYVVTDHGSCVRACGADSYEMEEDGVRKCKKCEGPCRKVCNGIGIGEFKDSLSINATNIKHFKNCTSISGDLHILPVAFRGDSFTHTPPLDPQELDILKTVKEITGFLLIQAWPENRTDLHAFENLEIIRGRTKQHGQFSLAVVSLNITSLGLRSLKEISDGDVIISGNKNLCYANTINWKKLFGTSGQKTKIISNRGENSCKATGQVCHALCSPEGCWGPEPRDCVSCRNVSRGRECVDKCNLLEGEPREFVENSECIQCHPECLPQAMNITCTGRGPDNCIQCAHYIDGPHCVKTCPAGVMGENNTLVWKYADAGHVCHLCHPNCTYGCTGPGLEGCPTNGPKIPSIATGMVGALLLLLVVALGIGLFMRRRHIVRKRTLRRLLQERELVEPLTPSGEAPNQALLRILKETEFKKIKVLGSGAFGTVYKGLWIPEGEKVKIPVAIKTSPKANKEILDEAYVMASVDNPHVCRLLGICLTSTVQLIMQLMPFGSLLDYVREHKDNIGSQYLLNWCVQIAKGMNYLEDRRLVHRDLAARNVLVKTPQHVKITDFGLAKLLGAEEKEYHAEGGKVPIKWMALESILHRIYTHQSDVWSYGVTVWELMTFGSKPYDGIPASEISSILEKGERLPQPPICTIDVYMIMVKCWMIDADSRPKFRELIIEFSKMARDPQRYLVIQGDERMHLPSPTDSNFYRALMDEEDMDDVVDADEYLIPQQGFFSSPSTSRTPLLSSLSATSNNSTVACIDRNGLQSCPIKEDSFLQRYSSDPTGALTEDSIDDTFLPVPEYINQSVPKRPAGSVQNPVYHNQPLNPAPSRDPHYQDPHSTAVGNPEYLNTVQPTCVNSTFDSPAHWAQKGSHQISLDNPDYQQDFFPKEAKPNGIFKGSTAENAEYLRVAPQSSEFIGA
Ba/F3 EGFR Wild-type, sequence (P00533 whole entry, stated change not applied): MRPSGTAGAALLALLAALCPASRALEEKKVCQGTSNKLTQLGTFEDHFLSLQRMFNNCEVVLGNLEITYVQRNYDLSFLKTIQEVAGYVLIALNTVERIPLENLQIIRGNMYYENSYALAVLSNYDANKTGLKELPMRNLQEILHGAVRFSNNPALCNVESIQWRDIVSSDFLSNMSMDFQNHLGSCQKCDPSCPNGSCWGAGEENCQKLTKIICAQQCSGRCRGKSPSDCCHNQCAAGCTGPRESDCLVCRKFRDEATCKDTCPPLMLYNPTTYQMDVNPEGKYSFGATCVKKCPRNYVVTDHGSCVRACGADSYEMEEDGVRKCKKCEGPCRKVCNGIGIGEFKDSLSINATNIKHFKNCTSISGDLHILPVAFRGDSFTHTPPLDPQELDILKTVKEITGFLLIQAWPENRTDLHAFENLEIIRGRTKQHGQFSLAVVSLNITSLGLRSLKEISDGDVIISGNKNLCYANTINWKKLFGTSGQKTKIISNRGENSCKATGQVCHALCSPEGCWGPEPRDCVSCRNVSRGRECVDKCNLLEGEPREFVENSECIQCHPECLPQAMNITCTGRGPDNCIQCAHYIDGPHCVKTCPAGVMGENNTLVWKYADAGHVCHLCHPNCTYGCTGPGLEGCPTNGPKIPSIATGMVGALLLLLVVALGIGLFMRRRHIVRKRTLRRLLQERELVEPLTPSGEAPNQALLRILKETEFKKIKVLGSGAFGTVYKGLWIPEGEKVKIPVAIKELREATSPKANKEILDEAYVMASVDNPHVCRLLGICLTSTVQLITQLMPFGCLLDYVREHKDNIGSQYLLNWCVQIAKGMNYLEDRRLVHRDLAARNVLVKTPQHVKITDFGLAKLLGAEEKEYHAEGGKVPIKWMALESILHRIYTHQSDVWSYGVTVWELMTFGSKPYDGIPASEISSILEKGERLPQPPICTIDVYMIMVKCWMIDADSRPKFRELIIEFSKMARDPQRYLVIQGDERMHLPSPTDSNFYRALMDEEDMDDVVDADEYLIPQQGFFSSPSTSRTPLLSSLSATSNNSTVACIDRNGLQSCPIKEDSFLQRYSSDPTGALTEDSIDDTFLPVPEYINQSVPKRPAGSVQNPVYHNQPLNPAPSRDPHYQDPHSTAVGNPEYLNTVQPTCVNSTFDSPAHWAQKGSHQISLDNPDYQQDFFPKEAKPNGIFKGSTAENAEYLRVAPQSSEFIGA
Ba/F3 EGFR Del19/T790M mutants, sequence (P00533 with tags, fused parts or gaps DEL746-750/T790M, form open): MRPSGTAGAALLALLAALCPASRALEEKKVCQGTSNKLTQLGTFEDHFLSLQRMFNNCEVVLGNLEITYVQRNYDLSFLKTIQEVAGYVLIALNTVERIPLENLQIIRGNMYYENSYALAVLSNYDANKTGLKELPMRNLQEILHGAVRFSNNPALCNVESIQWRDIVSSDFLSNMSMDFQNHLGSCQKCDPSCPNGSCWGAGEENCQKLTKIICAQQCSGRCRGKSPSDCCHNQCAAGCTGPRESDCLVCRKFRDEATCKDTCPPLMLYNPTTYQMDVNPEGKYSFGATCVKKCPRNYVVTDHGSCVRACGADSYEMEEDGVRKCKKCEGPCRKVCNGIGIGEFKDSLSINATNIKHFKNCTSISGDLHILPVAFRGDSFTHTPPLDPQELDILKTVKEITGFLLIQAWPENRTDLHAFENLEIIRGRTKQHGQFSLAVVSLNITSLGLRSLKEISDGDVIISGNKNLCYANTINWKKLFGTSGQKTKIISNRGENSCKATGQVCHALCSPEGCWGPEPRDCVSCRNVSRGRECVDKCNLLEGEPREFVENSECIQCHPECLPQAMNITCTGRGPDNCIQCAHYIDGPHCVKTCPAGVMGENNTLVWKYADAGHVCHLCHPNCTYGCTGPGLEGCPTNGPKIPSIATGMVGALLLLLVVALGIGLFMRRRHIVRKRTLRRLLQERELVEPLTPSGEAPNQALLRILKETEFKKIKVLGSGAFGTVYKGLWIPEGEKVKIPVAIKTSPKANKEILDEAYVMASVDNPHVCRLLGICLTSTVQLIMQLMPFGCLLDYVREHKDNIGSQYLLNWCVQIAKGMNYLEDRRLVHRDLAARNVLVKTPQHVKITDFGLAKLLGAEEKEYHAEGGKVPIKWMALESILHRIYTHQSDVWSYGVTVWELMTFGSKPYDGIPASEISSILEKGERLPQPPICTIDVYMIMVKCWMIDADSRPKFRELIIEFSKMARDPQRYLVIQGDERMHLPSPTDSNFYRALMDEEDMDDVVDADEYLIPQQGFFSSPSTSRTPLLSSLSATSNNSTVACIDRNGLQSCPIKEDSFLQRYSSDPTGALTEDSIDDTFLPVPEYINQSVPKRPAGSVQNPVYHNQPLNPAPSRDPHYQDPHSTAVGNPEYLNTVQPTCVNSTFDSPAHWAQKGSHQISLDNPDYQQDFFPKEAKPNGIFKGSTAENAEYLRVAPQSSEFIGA
Ba/F3 EGFR Del19/C797S mutants, sequence (P00533 with tags, fused parts or gaps DEL746-750/C797S, form open): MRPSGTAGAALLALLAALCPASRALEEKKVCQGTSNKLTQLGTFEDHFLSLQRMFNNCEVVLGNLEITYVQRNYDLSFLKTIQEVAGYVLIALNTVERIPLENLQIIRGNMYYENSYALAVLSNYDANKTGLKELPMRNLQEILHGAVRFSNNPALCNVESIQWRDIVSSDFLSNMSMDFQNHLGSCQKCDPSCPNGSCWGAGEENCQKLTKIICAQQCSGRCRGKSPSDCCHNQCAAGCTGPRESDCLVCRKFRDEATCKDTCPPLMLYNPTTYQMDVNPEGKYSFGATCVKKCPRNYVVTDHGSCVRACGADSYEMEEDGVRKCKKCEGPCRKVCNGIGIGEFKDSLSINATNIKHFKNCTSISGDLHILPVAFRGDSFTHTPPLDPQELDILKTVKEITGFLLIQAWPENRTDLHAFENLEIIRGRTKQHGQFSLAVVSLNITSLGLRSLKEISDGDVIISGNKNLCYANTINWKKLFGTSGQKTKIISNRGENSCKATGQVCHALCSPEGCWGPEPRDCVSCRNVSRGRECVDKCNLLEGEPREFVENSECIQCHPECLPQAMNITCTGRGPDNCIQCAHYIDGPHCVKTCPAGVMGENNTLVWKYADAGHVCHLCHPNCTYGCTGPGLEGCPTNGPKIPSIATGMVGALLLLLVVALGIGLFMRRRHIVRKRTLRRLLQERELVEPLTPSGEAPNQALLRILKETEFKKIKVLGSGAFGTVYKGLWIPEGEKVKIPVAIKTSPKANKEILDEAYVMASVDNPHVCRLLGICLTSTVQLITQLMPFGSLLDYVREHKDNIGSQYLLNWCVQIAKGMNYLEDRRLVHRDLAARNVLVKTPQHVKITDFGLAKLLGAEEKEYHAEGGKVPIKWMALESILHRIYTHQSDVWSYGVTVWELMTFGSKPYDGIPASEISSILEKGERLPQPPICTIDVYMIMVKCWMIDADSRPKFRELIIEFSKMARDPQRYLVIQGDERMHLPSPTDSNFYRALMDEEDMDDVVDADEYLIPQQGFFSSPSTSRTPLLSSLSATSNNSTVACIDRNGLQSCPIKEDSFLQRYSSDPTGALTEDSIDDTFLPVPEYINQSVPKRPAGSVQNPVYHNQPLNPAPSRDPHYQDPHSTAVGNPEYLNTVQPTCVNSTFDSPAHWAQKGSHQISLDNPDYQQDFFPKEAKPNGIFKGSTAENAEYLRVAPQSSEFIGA

For `COc1cc(C2CCNCC2)c(C)cc1Nc1ncc(Br)c(Nc2ccc3nccnc3c2NS(C)(=O)=O)n1` [Example B11, N-(6-((5-bromo-2-((2-methoxy-5-methyl-4-(piperidin-4-yl)phenyl)amino)pyrimidin-4-yl)amino)quinoxalin-5-yl)methanesulfonamide], the GI50 is 1270 nM on Ba/F3 EGFR Wild-type; 781 nM in test [1]; 264 nM in test [2]; 443 nM in test [3]; 583 nM in test [4]; 725 nM in test [5].

As to `COc1cc(C2CCN(C(C)=O)CC2)ccc1Nc1ncc(Cl)c(Nc2ccc3nccnc3c2NS(C)(=O)=O)n1` [Example B8, N-(6-((2-((4-(1-acetylpiperidin-4-yl)-2-methoxyphenyl)amino)-5-chloropyrimidin-4-yl)amino)quinoxalin-5-yl)methanesulfonamide], the GI50 amounted to 729 nM at Ba/F3 EGFR Wild-type; 554 nM in test [1]; 861 nM in test [2]; 424 nM in test [3]; 320 nM in test [4]; 292 nM in test [5].

With `CCc1cc(Nc2ncc(Cl)c(Nc3ccc4nccnc4c3N(C)S(C)(=O)=O)n2)c(OC)cc1N1CCC(N2CC3CCC2CN3C)CC1` (stereo not drawn) [Example A47, N-(6-((5-chloro-2-((5-ethyl-2-methoxy-4-(4-(5-methyl-2,5-diazabicyclo[2.2.2]octan-2-yl)piperidin-1-yl)phenyl)amino)pyrimidin-4-yl)amino)quinoxalin-5-yl)-N-methylmethanesulfonamide], the GI50 worked out at 730 nM at Ba/F3 EGFR Wild-type; 125 nM in test [1]; 64 nM in test [2]; 17 nM in test [3]; 7 nM in test [4]; 25 nM in test [5].

Take `COc1ccc(Nc2nc(Nc3cc(C)c(N4CCC(N5CCN(C)CC5)CC4)cc3OC)ncc2Cl)c(NS(C)(=O)=O)c1` [Example C26, N-(2-((5-chloro-2-((2-methoxy-5-methyl-4-(4-(4-methylpiperazin-1-yl)piperidin-1-yl)phenyl)amino)pyrimidin-4-yl)amino)-5-methoxyphenyl)methanesulfonamide]: the GI50 on Ba/F3 EGFR Wild-type was 421 nM; in test [1] it was 35 nM; in test [2], 54 nM; in test [3], 8 nM; in test [4], 7 nM; in test [5] it was 5 nM.

In the case of `COc1cc(N2CCC(N3CCN(C)CC3)CC2)c(F)cc1Nc1ncc(Br)c(Nc2ccc3nccnc3c2NS(C)(=O)=O)n1` [Example A27, N-(6-((5-bromo-2-((5-fluoro-2-methoxy-4-(4-(4-methylpiperazin-1-yl)piperidin-1-yl)phenyl)amino)pyrimidin-4-yl)amino)quinoxalin-5-yl)methanesulfonamide], the GI50 amounted to 183 nM on Ba/F3 EGFR Wild-type; 184 nM in test [1]; 65 nM in test [2]; 27 nM in test [3]; 101 nM in test [4]; 192 nM in test [5].

For the compound `CCc1cc(Nc2ncc(Br)c(Nc3cccc(OC)c3N(C)S(C)(=O)=O)n2)c(OC)cc1N1CCC(N2CCN(C)CC2)CC1` [Example C29, N-(2-((5-bromo-2-((5-ethyl-2-methoxy-4-(4-(4-methylpiperazin-1-yl)piperidin-1-yl)phenyl)amino)pyrimidin-4-yl)amino)-6-methoxyphenyl)-N-methylmethane sulfonamide], the GI50 on Ba/F3 EGFR Wild-type stood at 669 nM; in test [1] it was 76 nM; in test [2], 21 nM; in test [3], 7 nM; in test [4], 5 nM; in test [5], 5 nM.

For `COc1cc(N2CCC(N3CCN(C)CC3)CC2)c(C)cc1Nc1ncc(Cl)c(Nc2ccc3nccnc3c2NS(C)(=O)=O)n1` [Example A1, N-(6-((5-chloro-2-((2-methoxy-5-methyl-4-(4-(4-methylpiperazin-1-yl)piperidin-1-yl)phenyl)amino)pyrimidin-4-yl)amino)quinoxalin-5-yl)methanesulfonamide], the GI50 on Ba/F3 EGFR Wild-type is 312 nM; in test [1], 33 nM; in test [2] it was 17 nM; in test [3] it was 7 nM; in test [4], 17 nM; in test [5] it was 6 nM.
